Results on seven compounds are retold here after paper PMC8911775, “Phosphodiester Silybin Dimers Powerful Radical Scavengers: A Antiproliferative Activity on Different Cancer Cell Lines” (Molecules, 2022).

Molecules are shown by their SMILES.

On the set-up of data set [1]: method as in PMID 28800072. The following applies: estimated, relative to silibinin; cited from earlier work.
Data set [2] is described as follows: Apoptosis assay, annexin V-FITC/PI double staining, flow cytometry. The data set is classed as cell-based, Human. The following applies: human, Jurkat cells, 37 °C, Figure 4, read-out: viable cells (lower left quadrant). As to the method:
(§1) For this purpose, Jurkat was incubated with the molecules at a concentration of 200 μM, and flow cytometric analysis with annexin V/propidium iodine (PI) double staining was carried out.
(§2) The apoptosis analysis was performed on Jurkat cells seeded at 2.5 × 10^5 cells/mL in a 6-well plate. The cells were incubated in the absence or presence of 200 μM concentration of examined compounds at 37 °C and apoptosis induction was analysed after 48 h by double staining with annexin V/FITC and propidium iodide (PI) (eBioscience, Affimetrix Santa Clara, CA, USA). The cells undergoing apoptosis were quantified using a flow cytometer equipped with a 488 nm argon laser (Becton Dickinson, Franklin Lakes, NJ, USA) by Cell Quest software. All FACS analyses were performed at least 2 times.
(A flow cytometer gives signals particle by particle.)

Another data set relates to Jurkat cells. The description is as above. As to conditions: 200 μM, 48 h. The data set is classed as cell-based, Human. As for the experimental part:
as §1, §2

For a further data set, the system named is HDF. The data set can be described thus: Antiproliferative activity on normal human fibroblasts HDF. Format: cell-based. The following applies: 48 h incubation. As for the experimental part:
(§3) Human T lymphoblastoid (Jurkat) and human metastatic melanoma (WM266) cell lines were grown in RPMI medium supplemented with heat inactivated 10% fetal bovine serum (FBS), 2.5 mM glutamine, 100 U/mL penicillin, and 100 μg/mL streptomycin (Euroclone). Human cervix adenocarcinoma cell line (HeLa), human lung carcinoma (A549), human pancreatic cancer (PANC), human glioblastoma (U87) normal human fibroblasts (HDF) were grown in DMEM supplemented with 10% fetal bovine serum (FBS), 1% glutamine, 100 U/mL penicillin and 100 μg/mL streptomycin (Euroclone, Milano, Italy). Cells were maintained in humidified air containing 5% CO2, at 37 °C [30].
(§4) Cells were plated at density of 10,000 cells/well for Jurkat, 2000/well for WM266 and HDF, 1200 cells/well for HeLa, and 1000 for PANC, U87 and A375 in 96-well microplates (Thermofisher, Waltham, MA, USA). After 24 h incubation, cells were treated with increasing concentrations of synthetized compounds previously solubilized in DMSO at 50 mM concentration. Cell proliferation was determined by using (2-(2-methoxy-4-nitrophenyl)-3-(4-nitrophenyl)-5-(2,4-disulfophenyl)-2H-tetrazolium, monosodium salt (CCK-8, Sigma Aldrich) for Jurkat cells, and the 3-(4,5-dimethylthiazol-2-yl)-2,5- diphenyltetrazolium bromide assay (MTT, Sigma Aldrich, Sigma Aldrich, St. Louis, MO, USA)) for HeLa, WM266, PANC, U87 and HDF cells, after 48 h treatment. Plates were then analyzed by using a microplate reader (Enspire, Perkin Elmer Italia Spa, Milano, Italy) at 450 (CCK-8) or 570 nm (MTT).
(§5) The results are presented as the percentage of proliferating cells respect to the control (vehicle treated cells) and are expressed as means ± SE of, at least, three independent experiments performed in triplicate. The statistical analysis was performed using Student’s t-test, unpaired, two-sided, p < 0.05 was considered significant. The IC50 values were calculated by GraphPad Prism software.

In another data set the test system is Jurkat. Kind of data set: Antiproliferative activity on Jurkat cells (CCK-8). The data set is classed as cell-based. As to conditions: Homo sapiens, 48 h incubation. As for the experimental part: as §3, §4, §5
Data set [3] can be described thus: Hydroxyl radical (HO•) scavenging, second-order rate constant by laser flash photolysis (thiocyanate competition). As to conditions: calculated in H2O; mean of three replicates. The source says: Biologically, the hydroxyl radical (HO^●) is widely believed to be generated when hydrogen peroxide reacts with Fe(II) (Fenton reaction). The putative HO^●∙is an extremely reactive and short-lived species that can damage DNA, proteins, and lipids. However, the Fe(II)/H2O2 mixture has disadvantages in a scavenging assay because many flavonoids as well as flavonolignans are also metal chelators. When the sample is mixed with Fe(II), it may alter the activity of Fe(II) by chelation. As a result, it is impossible to distinguish if the antioxidants are simply good metal chelators or HO^● scavengers. In our study the second order rate constants for HO^● reactions with silybin dimers (6aa, 6bb and 6ab) have been determined by pulse photolysis method using hydrogen peroxide (H2O2) as ROS sources. […] This could be explained considering that in dimers 9′′-9′′ the 3, 5 and 4′′ OH functions, responsible for the radical scavenger activity, are not involved in any bond. […]
The reactivity constant between new silybin dimers and hydroxyl radical has been determined using Laser flash Photolysis system. […]
The formation of di-thiocyanate radical anion (SCN2^●−) through reactivity of photogenerated hydroxyl radicals (HO^●) with thiocyanate (SCN^- in the presence of hydrogen peroxide. The second-order rate constants between HO^● and dimers were determined following reactions (R1–R4 in the Section 2.2) and using the following equation:(1) Abs0/Abs=1+kHO^•,DimerII[Dimer]/kHO^•,SCN^−II[SCN^−] where Abs0 and Abs are the absorption of SCN2•− at 475 nm in absence and presence of dimers; kHO^•,SCN^−II and kHO^•,DimerII are the second-order rate constants of HO^● with thiocyanate and dimers at different concentrations. […] Means were compared by one way analysis of variance (ANOVA) and significant differences were assessed by post hoc tests of least significant. […]

Regarding `COc1cc(C2Oc3cc([C@H]4Oc5cc(O)cc(O)c5C(=O)[C@@H]4OP(=O)(O)OCC4Oc5ccc([C@H]6Oc7cc(O)cc(O)c7C(=O)[C@@H]6O)cc5OC4c4ccc(O)c(OC)c4)ccc3OC2CO)ccc1O` (stereo partly shown) [3-9′′], the “reactivity towards HO• with respect to silibinin” value in data set [1] was “about two times”.
In the case of `COc1cc(C2Oc3cc([C@H]4Oc5cc(O)cc(O)c5C(=O)[C@@H]4O)ccc3OC2COP(=O)(O)OCC2Oc3ccc([C@H]4Oc5cc(O)cc(O)c5C(=O)[C@@H]4O)cc3OC2c2ccc(O)c(OC)c2)ccc1O` (stereo partly shown) [9′′-9′′], the “reactivity towards HO• with respect to silibinin” value in data set [1] is recorded as “about two times”.
Consider `COc1cc([C@H]2Oc3cc([C@H]4Oc5cc(O)cc(O)c5C(=O)[C@@H]4O)ccc3O[C@@H]2CO)ccc1O` [Compound 1a, silybin A, reference compound], for which the viability at 48 h, 200 µM in data set [2] stood at 20.2%. The “apoptotic cells (early and advanced) with respect to the control” value (shortened to “apoptotic cells (early and advanced)”) in the data set on Jurkat cells is on record as 70%. The values for the IC50 in the data set on HDF and in the data set with Jurkat were 199 ± 34.5 µM and 46.7 ± 14.1 µM, respectively.
The like results for `COc1cc([C@@H]2Oc3cc([C@H]4Oc5cc(O)cc(O)c5C(=O)[C@@H]4O)ccc3O[C@H]2CO)ccc1O` [Compound 1b, silybin B, reference compound] were, in that order, 17.1%, 70%, 172 ± 39 µM and 36 ± 14.3 µM.
As to `COc1cc([C@H]2Oc3cc([C@H]4Oc5cc(O)cc(O)c5C(=O)[C@@H]4O)ccc3O[C@@H]2COP(=O)(O)OC[C@H]2Oc3ccc([C@H]4Oc5cc(O)cc(O)c5C(=O)[C@@H]4O)cc3O[C@@H]2c2ccc(O)c(OC)c2)ccc1O` [Compound 6aa], in data set [3], the “Second order rate constant kHO•,X II” value is 8.63 ± 1.35 × 10^9 M^−1·s^−1. Besides, the viability at 48 h, 200 µM in data set [2] stood at 73%. Moreover, the “apoptotic cells (early and advanced)” value in the data set with Jurkat cells amounted to 20%. Moreover, the IC50 (as a rule, the concentration that gives 50% inhibition) in the data set on HDF was greater than 200 µM; in the data set on Jurkat it was 71 ± 15.5 µM.
With `COc1cc([C@H]2Oc3cc([C@H]4Oc5cc(O)cc(O)c5C(=O)[C@@H]4O)ccc3O[C@@H]2COP(=O)(O)OC[C@@H]2Oc3ccc([C@H]4Oc5cc(O)cc(O)c5C(=O)[C@@H]4O)cc3O[C@H]2c2ccc(O)c(OC)c2)ccc1O` [Compound 6ab], in data set [3], the “Second order rate constant kHO•,X II” value is recorded as 1.48 ± 0.09 × 10^10 M^−1·s^−1. In data set [2], the viability at 48 h, 200 µM turned out to be 63.6%. In addition, the “apoptotic cells (early and advanced)” value in the data set on Jurkat cells was “about 25%”. Moreover, the IC50 in the data set on HDF was greater than 200 µM; in the data set with Jurkat, 64 ± 10.8 µM.
For `COc1cc([C@@H]2Oc3cc([C@H]4Oc5cc(O)cc(O)c5C(=O)[C@@H]4O)ccc3O[C@H]2COP(=O)(O)OC[C@@H]2Oc3ccc([C@H]4Oc5cc(O)cc(O)c5C(=O)[C@@H]4O)cc3O[C@H]2c2ccc(O)c(OC)c2)ccc1O` [Compound 6bb] the same measures were 1.01 ± 0.16 × 10^10 M^−1·s^−1, 84.8%, 4%, greater than 200 µM and 59 ± 19.9 µM.
